# Values quoted from earlier work, collected in patent US9987239B1, “Pharmaceutical retinoid preparation for topical use” (Rey Ventures, LLC, priority 2017, dated 2018).
smiles,measurement,setting,value
"COc1ccc(-c2ccc3cc(C(=O)O)ccc3c2)cc1C12CC3CC(CC(C3)C1)C2 [adapalene, 6-[3-(1-adamantyl)-4-methoxyphenyl] naphthalene-2-carboxylic]",solubility of adapalene in ethyl alcohol,ethyl alcohol,1000 µg/mL
same,solubility of adapalene (water),water,0.004 µg/mL
